Laboratory results taken from patent US20090246302A1, “COMPOSITION AND METHOD FOR PROTECTING AGRICULTURAL CROPS AND/OR AGRICULTURAL PRODUCTS” (priority 2008, published 2009).
Where two headings read alike, the source gives them in different places.

Columns and labels:
Assay type in all cases: in vivo
C. chinensis adult [1] = assay: whole plant or invertebrate; details: Callosobruchus chinensis, read-out: Mean (%) mortality of insects, laboratory trials; for mortality at 750 mg/kg: dosage of 750 mg/kg; for mortality at 1000 mg/kg: dosage of 1 g/kg
Description: (§1) The composition for protecting agricultural products was prepared. A new method was employed using rice bran, as carrier material. 500 g of clean and uncontaminated rice bran collected from the rice mills was completely dehydrated by sun drying. 25 g of the botanical extract of the P. betel in 125 ml of acetone was sprayed uniformly on to the rice bran. Mixed manually and allowed to shade dry for about 20 min.

S. oryzae [2] = assay: whole plant or invertebrate; details: Sitophilus oryzae, laboratory trials, read-out: Mean (%) mortality of insects; for mortality at 750 mg/kg: dosage of 750 mg/kg; for mortality at 1000 mg/kg: dosage of 1 g/kg
Description: as §1

C. cephalonica larvae [3] = assay: whole plant or invertebrate; details: Corcyra cephalonica, read-out: Mean (%) mortality of insects, laboratory trials; for mortality at 750 mg/kg: dosage of 750 mg/kg; for mortality at 1000 mg/kg: dosage of 1 g/kg
Description: as §1

T. granarium adult [4] = assay: whole plant or invertebrate; details: Trogoderma granarium, read-out: Mean (%) mortality of insects, laboratory trials; for mortality at 750 mg/kg: dosage of 750 mg/kg; for mortality at 1000 mg/kg: dosage of 1 g/kg
Description: as §1

C. chinensis adult [5] = details: field evaluation, dosage of 25 mg/25 Kg
S. oryzae [6] = details: field evaluation, dosage of 25 mg/25 Kg
T. granarium adult [7] = details: field evaluation, dosage of 25 mg/25 Kg
C. cephalonica larvae [8] = details: field evaluation, dosage of 25 mg/25 Kg

`C=CCc1ccc(O)c(OC)c1` [Eugenol, 4-Allyl-2-methoxyphenol] showed a mortality at 750 mg/kg (C. chinensis adult [1]; 1st week) of 100%, a mortality at 750 mg/kg (C. chinensis adult [1]; 2nd week) of 100% and a mortality at 750 mg/kg (C. chinensis adult [1]; 3rd week) of 58.4%. It also gave a mortality at 750 mg/kg (C. chinensis adult [1]; 4th week) of 20%, a mortality at 750 mg/kg (C. chinensis adult [1]; 5th week) of 0% and a mortality at 750 mg/kg (C. chinensis adult [1]; 6th week) of 0%. It also gave a mortality at 1000 mg/kg (C. chinensis adult [1]; 1st week) of 100%, a mortality at 1000 mg/kg (C. chinensis adult [1]; 2nd week) of 100% and a mortality at 1000 mg/kg (C. chinensis adult [1]; 3rd week) of 63%. For the same molecule, the mortality at 1000 mg/kg (C. chinensis adult [1]; 4th week) was 35%, the mortality at 1000 mg/kg (C. chinensis adult [1]; 5th week) was 20% and the mortality at 1000 mg/kg (C. chinensis adult [1]; 6th week) was 0%. For the same molecule, the mortality at 750 mg/kg (S. oryzae [2]; 1st week) was 100%, the mortality at 750 mg/kg (S. oryzae [2]; 2nd week) was 100% and the mortality at 750 mg/kg (S. oryzae [2]; 3rd week) was 40%. For the same molecule, the mortality at 750 mg/kg (S. oryzae [2]; 4th week) was 20%, the mortality at 750 mg/kg (S. oryzae [2]; 5th week) was 0% and the mortality at 750 mg/kg (S. oryzae [2]; 6th week) was 0%. It also gave a mortality at 1000 mg/kg (S. oryzae [2]; 1st week) of 100%, a mortality at 1000 mg/kg (S. oryzae [2]; 2nd week) of 100% and a mortality at 1000 mg/kg (S. oryzae [2]; 3rd week) of 40%. For the same molecule, the mortality at 1000 mg/kg (S. oryzae [2]; 4th week) was 35%, the mortality at 1000 mg/kg (S. oryzae [2]; 5th week) was 25% and the mortality at 1000 mg/kg (S. oryzae [2]; 6th week) was 0%. For the same molecule, the mortality at 750 mg/kg (C. cephalonica larvae [3]; 1st week) was 100%, the mortality at 750 mg/kg (C. cephalonica larvae [3]; 2nd week) was 100% and the mortality at 750 mg/kg (C. cephalonica larvae [3]; 3rd week) was 53.3%. The mortality at 750 mg/kg (C. cephalonica larvae [3]; 4th week) was 13.3%, the mortality at 750 mg/kg (C. cephalonica larvae [3]; 5th week) was 0% and the mortality at 750 mg/kg (C. cephalonica larvae [3]; 6th week) was 0%. For the same molecule, the mortality at 1000 mg/kg (C. cephalonica larvae [3]; 1st week) was 100%, the mortality at 1000 mg/kg (C. cephalonica larvae [3]; 2nd week) was 100% and the mortality at 1000 mg/kg (C. cephalonica larvae [3]; 3rd week) was 74%. It also gave a mortality at 1000 mg/kg (C. cephalonica larvae [3]; 4th week) of 29%, a mortality at 1000 mg/kg (C. cephalonica larvae [3]; 5th week) of 13.3% and a mortality at 1000 mg/kg (C. cephalonica larvae [3]; 6th week) of 0%. The mortality at 750 mg/kg (T. granarium adult [4]; 1st week) was 100%, the mortality at 750 mg/kg (T. granarium adult [4]; 2nd week) was 100% and the mortality at 750 mg/kg (T. granarium adult [4]; 3rd week) was 26%. It also gave a mortality at 750 mg/kg (T. granarium adult [4]; 4th week) of 13.3%, a mortality at 750 mg/kg (T. granarium adult [4]; 5th week) of 0% and a mortality at 750 mg/kg (T. granarium adult [4]; 6th week) of 0%. It also gave a mortality at 1000 mg/kg (T. granarium adult [4]; 1st week) of 100%, a mortality at 1000 mg/kg (T. granarium adult [4]; 2nd week) of 100% and a mortality at 1000 mg/kg (T. granarium adult [4]; 3rd week) of 40%. For the same molecule, the mortality at 1000 mg/kg (T. granarium adult [4]; 4th week) was 23%, the mortality at 1000 mg/kg (T. granarium adult [4]; 5th week) was 0% and the mortality at 1000 mg/kg (T. granarium adult [4]; 6th week) was 0%. The “Mean (%) mortality of insects” value (C. chinensis adult [5]; 1st week) was 100%, the “Mean (%) mortality of insects” value (C. chinensis adult [5]; 2nd week) was 100% and the “Mean (%) mortality of insects” value (C. chinensis adult [5]; 3rd week) was 100%. The “Mean (%) mortality of insects” value (C. chinensis adult [5]; 4th week) was 53%, the “Mean (%) mortality of insects” value (C. chinensis adult [5]; 5th week) was 39% and the “Mean (%) mortality of insects” value (C. chinensis adult [5]; 6th week) was 12.4%. For the same molecule, the “Mean (%) mortality of insects” value (C. chinensis adult [5]; 7th week) was 0%, the “Mean (%) mortality of insects” value (S. oryzae [6]; 1st week) was 100% and the “Mean (%) mortality of insects” value (S. oryzae [6]; 2nd week) was 100%. For the same molecule, the “Mean (%) mortality of insects” value (S. oryzae [6]; 3rd week) was 85%, the “Mean (%) mortality of insects” value (S. oryzae [6]; 4th week) was 50% and the “Mean (%) mortality of insects” value (S. oryzae [6]; 6th week) was 0%. The “Mean (%) mortality of insects” value (S. oryzae [6]; 7th week) was 0%, the “Mean (%) mortality of insects” value (T. granarium adult [7]; 1st week) was 100% and the “Mean (%) mortality of insects” value (T. granarium adult [7]; 2nd week) was 100%. The “Mean (%) mortality of insects” value (T. granarium adult [7]; 3rd week) was 72%, the “Mean (%) mortality of insects” value (T. granarium adult [7]; 4th week) was 42% and the “Mean (%) mortality of insects” value (T. granarium adult [7]; 5th week) was 20%. For the same molecule, the “Mean (%) mortality of insects” value (T. granarium adult [7]; 6th week) was 0%, the “Mean (%) mortality of insects” value (T. granarium adult [7]; 7th week) was 0% and the “Mean (%) mortality of insects” value (C. cephalonica larvae [8]; 1st week) was 100%. The “Mean (%) mortality of insects” value (C. cephalonica larvae [8]; 2nd week) was 100%, the “Mean (%) mortality of insects” value (C. cephalonica larvae [8]; 3rd week) was 89% and the “Mean (%) mortality of insects” value (C. cephalonica larvae [8]; 4th week) was 66%. The “Mean (%) mortality of insects” value (C. cephalonica larvae [8]; 5th week) was 23%, the “Mean (%) mortality of insects” value (C. cephalonica larvae [8]; 6th week) was 0% and the “Mean (%) mortality of insects” value (C. cephalonica larvae [8]; 7th week) was 0%.
